Structures can show the parent of a compound that is named as a salt.
Target: T1, IRAK4 (Homo sapiens, UniProt Q9NWZ3)
T1 sequence (Q9NWZ3 1-460): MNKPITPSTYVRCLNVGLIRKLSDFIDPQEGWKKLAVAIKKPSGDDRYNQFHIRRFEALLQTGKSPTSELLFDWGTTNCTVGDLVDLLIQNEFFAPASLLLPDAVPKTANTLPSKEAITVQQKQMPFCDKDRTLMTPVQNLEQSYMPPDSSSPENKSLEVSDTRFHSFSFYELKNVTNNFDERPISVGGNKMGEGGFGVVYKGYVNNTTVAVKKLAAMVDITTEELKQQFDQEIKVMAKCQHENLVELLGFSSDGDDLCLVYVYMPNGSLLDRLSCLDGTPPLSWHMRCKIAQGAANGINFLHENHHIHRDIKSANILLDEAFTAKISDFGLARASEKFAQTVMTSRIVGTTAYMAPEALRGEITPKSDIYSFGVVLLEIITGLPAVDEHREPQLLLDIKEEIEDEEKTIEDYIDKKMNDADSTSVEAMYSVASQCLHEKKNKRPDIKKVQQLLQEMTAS
Test: 2-hour 1 mM ATP IRAK4 Biochemical assay (as above, but with 100 pM IRAK4 and 1 mM ATP)
Settings: IRAK4 MSD BIOCHEMICAL (1 mM ATP) IC50 (μM), 100 pM IRAK4, 2 hours
Description: The 2-hour 10 μM ATP Biochemical Assay employs a MesoScale Detection (MSD) format.
The activity is quenched with 11 μl of 70 mM EDTA, pH 8.
To detect the phosphorylated biotinylated peptide substrate, 30 μl of the quenched reaction mixture is added to equivalent wells of a 384 well streptavidin coated MesoScale plate (Meso Scale Discovery #L21SA-1). After a 1 hour incubation of the plate for 1 hour at room temperature with gentle mixing, the plate wells are washed 3 times with 50 mM Tris, pH 7.5, 150 mM NaCl, 0.02% Tween-20.
A 25 μl volume of 1:500 anti-P-Threonine Rabbit polyclonal Antibody plus 1:500 Goat-anti-Rabbit Sulfo Tag Antibody (Meso Scale Discovery R32AB-1) in 50 mM Tris, pH 7.5, 150 mM NaCl, 0.02% Tween-20 plus 2% BSA is then added to each well. After a 1-hour incubation of the plate for 1 hour at room temperature with gentle mixing, the plate wells are washed, 3 times with 50 mM Tris, pH 7.5, 150 mM NaCl, 0.02% Tween-20. A 40 μl volume of 2×MSD Read Buffer (Meso Scale Discovery R92TC-1) is added to each well, and the plate is read immediately in an MSD Plate Reader (Meso Scale Discovery).
The 2-hour 1 mM ATP IRAK4 Biochemical assay was performed as described above, but with 100 pM IRAK4 and 1 mM ATP.

Compound	IC50
O=C(Nc1cn2cc(C3CCOCC3)nc2cn1)c1csc(C2CC2)n1 [Example 332, 2-cyclopropyl-N-(2-(tetrahydro-2H-pyran-4-yl)imidazo[1,2-a]pyrazin-6-yl)thiazole-4-carboxamide]	0.108 µM
O=C(Nc1cn2cc(C3CC4(CCOC4)C3)nc2cn1)c1cccc(C(F)F)n1 (stereo not drawn) [Example 273, N-(2-(6-oxaspiro[3.4]octan-2-yl)imidazo[1,2-a]pyrazin-6-yl)-6-(difluoromethyl)picolinamide]	0.02 µM
COc1nc(NC(=O)c2ccn(C(C)C)n2)cn2cc(C3CCOCC3)nc12 [Example 462, 1-isopropyl-N-(8-methoxy-2-(tetrahydro-2H-pyran-4-yl)imidazo[1,2-a]pyrazin-6-yl)-1H-pyrazole-3-carboxamide 2,2,2-trifluoroacetate]	0.095 µM
O=C(Nc1cc(OCC(F)F)c2nc(C3CCOCC3)cn2c1)c1cccc(C(F)F)n1 [Example 289, N-(8-(2,2-difluoroethoxy)-2-(tetrahydro-2H-pyran-4-yl)imidazo[1,2-a]pyridin-6-yl)-6-(difluoromethyl)picolinamide]	0.006 µM
CCC(C)Oc1c(NC(=O)c2cccnc2OC)cn2cc(C34COC(C)(C3)C4)nc2c1F (single isomer, unassigned) [Example 327, N-(7-(sec-butoxy)-8-fluoro-2-(1-methyl-2-oxabicyclo[2.1.1]hexan-4-yl)imidazo[1,2-a]pyridin-6-yl)-2-methoxynicotinamide]	0.02 µM
CCOc1cc2nc([C@@H]3C[C@@H]3F)cn2cc1NC(=O)c1cccc(C(F)F)n1 (relative stereo) [Example 519, Cis 6-(difluoromethyl)-N-(7-ethoxy-2-(2-fluorocyclopropyl)imidazo[1,2-a]pyridin-6-yl)picolinamide hydrochloride]	0.008 µM
CC1(COc2cc3nc(C4CCOCC4)cn3cc2NC(=O)c2cccc(C(F)F)n2)CCOC1 (stereo not drawn) [Example 197, 6-(difluoromethyl)-N-(7-((3-methyltetrahydrofuran-3-yl)methoxy)-2-(tetrahydro-2H-pyran-4-yl)imidazo[1,2-a]pyridin-6-yl)picolinamide]	0.004 µM
Cc1nc(C(=O)Nc2cn3cc(C4CCOCC4)nc3cc2OC(C)C)co1 [Example 386, N-(7-isopropoxy-2-(tetrahydro-2H-pyran-4-yl)imidazo[1,2-a]pyridin-6-yl)-2-methyloxazole-4-carboxamide]	0.002 µM
CC(C)Oc1nc2nc(C3C4COCC43)cn2cc1NC(=O)c1ccn(C)n1 (stereo not drawn) [Example 500, N-(2-(3-oxabicyclo[3.1.0]hexan-6-yl)-7-isopropoxyimidazo[1,2-a]pyrimidin-6-yl)-1-methyl-1H-pyrazole-3-carboxamide Hydrochloride]	0.005 µM
CCOc1cc2nc(C3CCOCC3)cn2cc1NC(=O)c1cccc(C2CCOC2)n1 (stereo not drawn) [Example 367, N-(7-ethoxy-2-(tetrahydro-2H-pyran-4-yl)imidazo[1,2-a]pyridin-6-yl)-6-(tetrahydrofuran-3-yl)picolinamide]	0.011 µM
COc1nc(NC(=O)c2cccc(C(F)F)n2)cn2cc(C3COCCO3)nc12 (stereo not drawn) [Example 278, N-(2-(1,4-dioxan-2-yl)-8-methoxyimidazo[1,2-a]pyrazin-6-yl)-6-(difluoromethyl)picolinamide]	0.023 µM
CC(C)(O)c1cc2nc(C3CCOCC3)cn2cc1NC(=O)c1cccc(C(F)F)n1 [Example 292, 6-(difluoromethyl)-N-(7-(2-hydroxypropan-2-yl)-2-(tetrahydro-2H-pyran-4-yl)imidazo[1,2-a]pyridin-6-yl)picolinamide]	0.001 µM
CC(C)Oc1cc2nc(Cl)cn2cc1NC(=O)c1cccc(C(F)F)n1 [Example 294, N-(2-chloro-7-isopropoxyimidazo[1,2-a]pyridin-6-yl)-6-(difluoromethyl)picolinamide]	0.002 µM
CCOc1cc(NC(=O)c2cccc(C(F)F)n2)cn2cc(C3CCCOC3)nc12 (single isomer, unassigned) [Example 285, 6-(difluoromethyl)-N-(8-ethoxy-2-(tetrahydro-2H-pyran-3-yl)imidazo[1,2-a]pyridin-6-yl)picolinamide]	0.006 µM
COc1nc2nc(C3C4COCC43)cn2cc1NC(=O)c1cccc(C(F)F)n1 (stereo not drawn) [Example 568, N-(2-(3-oxabicyclo[3.1.0]hexan-6-yl)-7-methoxyimidazo[1,2-a]pyrimidin-6-yl)-6-(difluoromethyl)picolinamide 2,2,2-trifluoroacetate]	0.009 µM
O=C(Nc1cn2cc(C3CCOCC3)nc2cc1Cl)c1cccc(C(F)F)n1 [Example 405, N-(7-chloro-2-(tetrahydro-2H-pyran-4-yl)imidazo[1,2-a]pyridin-6-yl)-6-(difluoromethyl)picolinamide 2,2,2-trifluoroacetate]	0.006 µM

Results, then the molecule that gave them:

IC50	Compound
0.039 µM	COc1nc(NC(=O)c2cccc(C)c2F)cn2cc(C34COC(C)(C3)C4)nc12 [Example 444, 2-fluoro-N-(8-methoxy-2-(1-methyl-2-oxabicyclo[2.1.1]hexan-4-yl)imidazo[1,2-a]pyrazin-6-yl)-3-methylbenzamide]
0.015 µM	COc1ccccc1C(=O)Nc1cn2cc(C34COC(C)(C3)C4)nc2c(OC(C)C)n1 [Example 477, N-(8-isopropoxy-2-(1-methyl-2-oxabicyclo[2.1.1]hexan-4-yl)imidazo[1,2-a]pyrazin-6-yl)-2-methoxybenzamide 2,2,2-trifluoroacetate]
0.001 µM	CC(C)Oc1cc2nc(C34CC(F)(C3)C4)cn2cc1NC(=O)c1cccc(C(F)F)n1 [Example 258, 6-(difluoromethyl)-N-(2-(3-fluorobicyclo[1.1.1]pentan-1-yl)-7-isopropoxyimidazo[1,2-a]pyridin-6-yl)picolinamide]
0.01 µM	COc1nc2nc(C34CC(OC)(C3)C4)cn2cc1NC(=O)c1cccc(C(F)F)n1 [Example 565, 6-(difluoromethyl)-N-(7-methoxy-2-(3-methoxybicyclo[1.1.1]pentan-1-yl)imidazo[1,2-a]pyrimidin-6-yl)picolinamide]
0.118 µM	COc1nc(NC(=O)c2ccn(C)n2)cn2cc(C34COC(C)(C3)C4)nc12 [Example 441, N-(8-methoxy-2-(1-methyl-2-oxabicyclo[2.1.1]hexan-4-yl)imidazo[1,2-a]pyrazin-6-yl)-1-methyl-1H-pyrazole-3-carboxamide]
0.005 µM	COc1nc(NC(=O)c2cccc(C(F)F)n2)cn2cc([C@@]34CC[C@@](C)(C3)OC4)nc12 (single isomer, unassigned) [Example 276, 6-(Difluoromethyl)-N-(8-methoxy-2-((1S*,4R*)-1-methyl-2-oxabicyclo[2.2.1]heptan-4-yl)imidazo[1,2-a]pyrazin-6-yl)picolinamide]
0.055 µM	COc1nc(NC(=O)c2cccc(C(F)F)n2)cn2cc(C34COCC3C4)nc12 (stereo not drawn) [Example 550, N-(2-(3-oxabicyclo[3.1.0]hexan-1-yl)-8-methoxyimidazo[1,2-a]pyrazin-6-yl)-6-(difluoromethyl)picolinamide 2,2,2-trifluoroacetate]
0.003 µM	Cc1cccc(C(=O)Nc2cn3cc(C45COC(C)(C4)C5)nc3c(F)c2OC(C)C)c1F [Example 425, 2-fluoro-N-(8-fluoro-7-isopropoxy-2-(1-methyl-2-oxabicyclo[2.1.1]hexan-4-yl)imidazo[1,2-a]pyridin-6-yl)-3-methylbenzamide 2,2,2-trifluoroacetate]
